Laboratory results from US4318916A, “Antibiotic PS-5 and derivatives having β-lactamase inhibitory activity and production thereof” (Sanraku-Ocean Co., Ltd., priority 1977, dated 1982).
Where two headings read alike, the source gives them in different places.

Tests used:
[1] = pH and heat stability of antibiotic PS-5 in aqueous solution; type: physicochemical; settings: for remaining at 0.25 h: water, pH 9, at least 15 min of heating at 60° C., aqueous solution, around neutral to weakly alkaline pH below pH 9
Enterobacter sp. E-8 = experiment: Potentiation disc assay with penicillin G (Table 9); type: cell-based; settings: for Inhibition zone With pen. G: 50 μg/ml penicillin G in agar
Description: (§1) (A) Ten milliliters of molten nutrient agar containing 50 μg/ml of penicillin G or cephaloridine, 0.8% of Kyokuto Nutrient Broth Powder and 1.0% of Difco Bacto-Agar (pH 7.0) were seeded with the beta-lactam-resistant, beta-lactamase-producing microorganisms indicated in Tables 9 and 10, and poured in a 9-cm Petri dish to provide the bio-assay agar plate. On this assay plate, 8-mm pulp discs containing 25 μl each of antibiotic PS-5 solutions at the indicated concentrations were placed and incubated at 35° C. for 18 hours before reading the inhibition zones. The control assay plate was similarly prepared without penicillin G nor cephaloridine. As reference antibiotics, penicillin G, ampicillin, oxacillin and cefazolin were disc-assayed under the same conditions.

Proteus vulgaris P-5 [2] = experiment: as above; type: cell-based; settings: for Inhibition zone With pen. G: 50 μg/ml penicillin G in agar
Description: as §1

Proteus sp. P-22 [3] = experiment: as above; type: cell-based; settings: for Inhibition zone With pen. G: 50 μg/ml penicillin G in agar
Description: as §1

[4] = pH and heat stability of antibiotic PS-5 in aqueous solution; type: physicochemical; settings: phosphate buffer, yellowish brown powder of Example 5
Description: Phosphate buffer solutions of the indicated pH's were made by adjusting M/15 dipotassium phosphate to a desired pH with 5 N NaOH or 5 N phosphoric acid. To 1 milliliter of the antibiotic PS-5 solution, 1 milliliter of the phosphate buffer was added and, if necessary, the pH value was readjusted to the initial value. The antibiotic PS-5 solutions with varied pH's were kept at 60° C. for 30 minutes in a water bath, cooled in running water and neutralized to pH 7.0 with a small amount of 5 N NaOH or 5 N phosphoric acid. The control tube containing the antibiotic PS-5 solution of pH 7.0 was put in an ice bath for 30 minutes. The remaining antimicrobial activity was determined as described above, utilizing Comamonas terrigena B-996 as the assay microorganism. The results shown in the following table were calculated as percent of the control: […]

[5] = Solubility of antibiotic PS-5; type: physicochemical
[6] = Solubility of trityl ester of antibiotic PS-5; type: physicochemical
Description: The solubility of the tritylation product of the antibiotic PS-5 was determined by dissolving under […] 5 mg each of the tritylation product of the antibiotic PS-5 in 0.1 ml each of the test solvents at 20° C.

Citrobacter freundii E-9 = experiment: Potentiation disc assay of trityl ester (Table 14); type: cell-based; settings: for Halo of inhibition Cephaloridine added: 50 μg/ml cephaloridine in base agar
Description: (§2) (A) Assay Petri dishes (9 cm in diameter) containing resistant microorganisms were prepared by overlaying 10 ml of the molten nutrient agar seeded with beta-lactam-resistant (beta-lactamase-producing) microorganisms, on the solid base layer of nutrient agar (pH 7.0) (15 ml) containing 50 μg/ml of penicillin G or cephaloridine. As described before, the antibiotic solutions to be tested were applied in a 25 μl amount on an 8 mm pulp disc and placed on the said assay dishes. After incubation for 18 hours at 35° C., the inhibition halos were measured and compared with the results on the corresponding assay dished containing neither penicillin G nor cephaloridine. From the data in Table 14, it is very clear that the combination of the tritylation product of antibiotic PS-5 at a concentration below the lower limit of disc assay, with penicillin G or cephaloridine, at a concentration below said limit, produced a significant halo of inhibition. This fact clearly proves the potentiation of the antibiotic activity of penicillin G or cephaloridine with the tritylation product of antibiotic PS-5.

Proteus vulgaris P-5 [7] = experiment: Potentiation disc assay of trityl ester (Table 14); type: cell-based; settings: for Halo of inhibition Cephaloridine added: 50 μg/ml cephaloridine in base agar
Description: as §2

Proteus sp. P-22 [8] = experiment: Potentiation disc assay of trityl ester (Table 14); type: cell-based; settings: for Halo of inhibition Cephaloridine added: 50 μg/ml cephaloridine in base agar
Description: as §2

[9] = 5 mg in 0.1 ml solvent at 20° C.

CCC1C(=O)N2C(C(=O)O)=C(SCCNC(C)=O)CC12 (single isomer, unassigned) [Antibiotic PS-5]
remaining at 5 min ([1]; pH 3, pH 3.0 for 5 minutes at -17° C., read-out: Initial antibiotic activity still detected): ≥ 30% | remaining at 0.25 h ([1]; read-out: Antibiotic activity remaining): ≥ 50% | remaining at 0.25 h ([1]; usual value, read-out: Antibiotic activity remaining, usually): > 70% | Inhibition zone With pen. G (Enterobacter sp. E-8; PS-5 79.5 μg/ml): 11.0 mm | Inhibition zone With pen. G (Enterobacter sp. E-8; PS-5 100 μg/ml): 13.8 mm | Inhibition zone With pen. G (Enterobacter sp. E-8; PS-5 159 μg/ml): 17.5 mm | Inhibition zone With pen. G (Enterobacter sp. E-8; PS-5 318 μg/ml): 20.0 mm | zone of inhibition at 79.5 µg/mL (Enterobacter sp. E-8; SP.E8, 18 h, PS-5 79.5 μg/ml, read-out: Inhibition zone Without pen. G): 11 mm | zone of inhibition at 100 µg/mL (Enterobacter sp. E-8; SP.E8, 18 h, PS-5 100 μg/ml, read-out: Inhibition zone Without pen. G): 13.8 mm | zone of inhibition at 159 µg/mL (Enterobacter sp. E-8; SP.E8, 18 h, PS-5 159 μg/ml, read-out: Inhibition zone Without pen. G): 17.2 mm | zone of inhibition at 318 µg/mL (Enterobacter sp. E-8; SP.E8, 18 h, PS-5 318 μg/ml, read-out: Inhibition zone Without pen. G): 20.1 mm | zone of inhibition at 79.5 µg/mL (Proteus vulgaris P-5 [2]; P5, 18 h, PS-5 79.5 μg/ml, read-out: Inhibition zone Without pen. G): 0 mm | zone of inhibition at 100 µg/mL (Proteus vulgaris P-5 [2]; P5, 18 h, PS-5 100 μg/ml, read-out: Inhibition zone Without pen. G): 10.3 mm | zone of inhibition at 159 µg/mL (Proteus vulgaris P-5 [2]; P5, 18 h, PS-5 159 μg/ml, read-out: Inhibition zone Without pen. G): 14 mm | zone of inhibition at 318 µg/mL (Proteus vulgaris P-5 [2]; P5, 18 h, PS-5 318 μg/ml, read-out: Inhibition zone Without pen. G): 16 mm | Inhibition zone With pen. G (Proteus vulgaris P-5 [2]; PS-5 79.5 μg/ml): 18.3 mm | Inhibition zone With pen. G (Proteus vulgaris P-5 [2]; PS-5 100 μg/ml): 22.2 mm | Inhibition zone With pen. G (Proteus vulgaris P-5 [2]; PS-5 159 μg/ml): 24.5 mm | Inhibition zone With pen. G (Proteus vulgaris P-5 [2]; PS-5 318 μg/ml): 26.6 mm | zone of inhibition at 79.5 µg/mL (Proteus sp. P-22 [3]; 18 h, PS-5 79.5 μg/ml, read-out: Inhibition zone Without pen. G): 0 mm | zone of inhibition at 100 µg/mL (Proteus sp. P-22 [3]; 18 h, PS-5 100 μg/ml, read-out: Inhibition zone Without pen. G): 0 mm | zone of inhibition at 159 µg/mL (Proteus sp. P-22 [3]; 18 h, PS-5 159 μg/ml, read-out: Inhibition zone Without pen. G): 11.7 mm | zone of inhibition at 318 µg/mL (Proteus sp. P-22 [3]; 18 h, PS-5 318 μg/ml, read-out: Inhibition zone Without pen. G): 13.6 mm | Inhibition zone With pen. G (Proteus sp. P-22 [3]; PS-5 79.5 μg/ml): 12.8 mm | Inhibition zone With pen. G (Proteus sp. P-22 [3]; PS-5 100 μg/ml): 13.8 mm | Inhibition zone With pen. G (Proteus sp. P-22 [3]; PS-5 159 μg/ml): 18.2 mm | Inhibition zone With pen. G (Proteus sp. P-22 [3]; PS-5 318 μg/ml): 21.4 mm | remaining at 0.5 h ([4]; pH 3, pH 3.0, 60° C. for 30 minutes, percent of control): 0% | remaining at 0.5 h ([4]; pH 4, pH 4.0, 60° C. for 30 minutes): 0% | remaining at 0.5 h ([4]; pH 5, pH 5.0, 60° C. for 30 minutes): 9% | remaining at 0.5 h ([4]; pH 6, pH 6.0, 60° C. for 30 minutes): 79% | remaining at 0.5 h ([4]; pH 7, pH 7.0, 60° C. for 30 minutes): 76.5% | remaining at 0.5 h ([4]; pH 8, pH 8.0, 60° C. for 30 minutes): 88.5% | remaining at 0.5 h ([4]; pH 9, pH 9.0, 60° C. for 30 minutes): 82% | Solubility in ethyl acetate and benzene ([5]; at pH above 4): substantially insoluble | Solubility in water ([5]; water at pH 6 to 9): soluble

CCC1C(=O)N2C(C(=O)OC(c3ccccc3)(c3ccccc3)c3ccccc3)=C(SCCNC(C)=O)CC12 (single isomer, unassigned) [Trityl PS-5]
Solubility in benzene, ethyl acetate, chloroform, methanol, ethanol, acetone, DMF and DMSO [6, 9]: Highly soluble | Solubility in water, n-hexane and petroleum ether [6, 9]: Substantially insoluble | Solubility in benzene, ethyl acetate, chloroform, acetone and dimethyl sulfoxide ([6]; general description): soluble | Solubility in water, hexane and petroleum ether ([6]; general description): substantially insoluble | zone of inhibition at 50 µg/mL (Citrobacter freundii E-9; E9, 18 h, Trityl PS-5 50 μg/ml, read-out: Halo of inhibition Control): 13 mm | zone of inhibition at 100 µg/mL (Citrobacter freundii E-9; E9, 18 h, Trityl PS-5 100 μg/ml, read-out: Halo of inhibition Control): 16 mm | Halo of inhibition Cephaloridine added (Citrobacter freundii E-9; Trityl PS-5 50 μg/ml): 15.5 mm | Halo of inhibition Cephaloridine added (Citrobacter freundii E-9; Trityl PS-5 100 μg/ml): 18.0 mm | zone of inhibition at 42 µg/mL (Proteus vulgaris P-5 [7]; P5, 18 h, Trityl PS-5 42 μg/ml, penicillin G series, read-out: Halo of inhibition Control): 0 mm | zone of inhibition at 50 µg/mL (Proteus vulgaris P-5 [7]; P5, 18 h, Trityl PS-5 50 μg/ml, cephaloridine series, read-out: Halo of inhibition Control): 0 mm | zone of inhibition at 100 µg/mL (Proteus vulgaris P-5 [7]; P5, 18 h, Trityl PS-5 100 μg/ml, cephaloridine series, read-out: Halo of inhibition Control): 11 mm | Halo of inhibition Penicillin G added (Proteus vulgaris P-5 [7]; Trityl PS-5 42 μg/ml, 50 μg/ml penicillin G in base agar): 27.0 mm | Halo of inhibition Cephaloridine added (Proteus vulgaris P-5 [7]; Trityl PS-5 50 μg/ml): 15.0 mm | Halo of inhibition Cephaloridine added (Proteus vulgaris P-5 [7]; Trityl PS-5 100 μg/ml): 18.0 mm | zone of inhibition at 50 µg/mL (Proteus sp. P-22 [8]; 18 h, Trityl PS-5 50 μg/ml, read-out: Halo of inhibition Control): 0 mm | zone of inhibition at 100 µg/mL (Proteus sp. P-22 [8]; 18 h, Trityl PS-5 100 μg/ml, read-out: Halo of inhibition Control): 0 mm | Halo of inhibition Cephaloridine added (Proteus sp. P-22 [8]; Trityl PS-5 50 μg/ml): 11.5 mm | Halo of inhibition Cephaloridine added (Proteus sp. P-22 [8]; Trityl PS-5 100 μg/ml): 13.5 mm
